In patent US20110201582A1, “METHOD AND COMPOSITION FOR TREATMENT OF SKIN CONDITIONS” (priority 2004, published 2011):
“Also recorded” adds a separate entry of the source. Structures can show the parent of a compound that is named as a salt.

System: eczema, seborrheic dermatitis and allergic skin reactions
Test: Applicant's general experiments: compounds applied to the affected skin area alone or before a topical corticosteroid
Assay type: in vivo, adult patient
Conditions: for effectiveness in alleviating the symptoms: applied alone, with no steroid; for enhancement of effectiveness of the topical corticosteroid: applied to affected area prior to the topical corticosteroid, compared with topical corticosteroid alone; for effectiveness compared with hydrocortisone 2.5% alone: decongestant alone applied before hydrocortisone 0.5%
Method: The experiments were conducted in order to try to treat these conditions as well as to try to enhance the performance of hydrocortisone and other topical corticosteroids in the treatment of these conditions.
With respect to the use of compounds to try to enhance the effectiveness of topical corticosteroids, the experiments involved first applying to the affected area particular compounds and then shortly thereafter applying to the same affected area a topical corticosteroid. For example, compounds that were tried include eye drop solutions, nasal decongestant sprays and other kinds of compounds available over the counter or by prescription. Antihistamine and decongestant combinations were tried as a solution to be applied to the affected area prior to the application of the steroid. In addition, antihistamines alone (preceding the corticosteroid) and decongestants alone (preceding the corticosteroid) were tried. As stated above, antihistamines alone (without the corticosteroid) and decongestants alone (without the corticosteroid) were also tried.
An increase in effectiveness is defined as greater alleviation of the dermatological symptoms of the condition or speedier alleviation of the dermatological symptoms of the condition or both.
That is, the identical experiment was conducted for the same condition but without preceding (or following) the application of the corticosteroid cream with an application of any solution in according with the method of the present invention.

| Structure (SMILES) | effectiveness in alleviating the symptoms (HCL) | enhancement of effectiveness of the topical corticosteroid (HCL) | effectiveness compared with hydrocortisone 2.5% alone | enhancement of effectiveness of the topical corticosteroid |
| --- | --- | --- | --- | --- |
| c1ccc2c(CC3=NCCN3)cccc2c1 [naphazoline HCL] | works somewhat to alleviate dermatological symptoms, albeit not fantastically; also recorded: mildly effective alleviation | slightly greater than that of a topical corticosteroid alone; also recorded: only mild enhancement of effectiveness | performs better |  |
| CNC[C@H](O)c1cccc(O)c1 [phenylephrine HCL] | works somewhat to alleviate dermatological symptoms, albeit not fantastically; also recorded: mildly effective alleviation |  | performs better | only mild enhancement of effectiveness |
